Assay results: patent USRE49873E1, “APP specific bace inhibitors (ASBIs) and uses thereof” (BUCK INSTITUTE FOR RESEARCH ON AGING, priority 2012, dated 2024)
“Also recorded” adds a separate entry of the source.

How the values were obtained:
TRX-eAPP575-624 = target: T1, TRX-eAPP575-624 (Homo sapiens, UniProt P05067); assay: Surface plasmon resonance binding to APP ectodomain fragments; settings: FIG. 5B
T1 construct: thioredoxin (TRX) and residues 575-624 of the ectodomain; made in house
Protocol: Three fusion proteins were immobilized via amine coupling using 20 mM phosphate, 125 mM sodium chloride pH 7.4. The three proteins were MBP-eAPP230-624—a fusion protein containing maltose binding protein (MBP) and residues 230624 of the ectodomain of APP (90-kDa) (FC4), eAPP230-624—a protein that contains only residues 230-624 (45-kDa)(FC2), and TRX-eAPP575-624—a fusion protein containing thioredoxin (TRX) and residues 575-624 of the ectodomain (20 -kDa) (FC3). The proteins were produced as described in Libeu, et al. (2011) J. Alzheimers Dis., 25(3): 547-566 Libeu et al (2011). The flow cell FC1 was used as a control. Galangin was diluted from 10 mM solutions in DMSO to 50 μM in 1% DMSO, 20 mM sodium phosphate pH 7.4, 125 mM sodium chloride, 0.05% Tween and then serially diluted by 1.5 for 10 steps. Binding traces were recorded for each dilution with a binding phase of 60 seconds and a dissociation phase of 240 seconds. Each cycle was performed at 20° C. with a constant flow rate of 20 μl/min. […]
The binding affinity of the compounds for the ectodomain of APP was determined using SPR. […] Galangin at various concentrations were used in the flow through over the chip and the plasmon resonance signal was determined using a Biacore T100 (FIG. 5B).

in vivo = assay: in vivo; design: species or system mice; settings: mouse
Protocol: The brain penetrance of galangin and progalangin were assessed in a standard PK comprising subcutaneous (Sub-Q) injection of 5 adult non-transgenic mice with 50 ul of a 5 mg/ml stock of compound in dimethylsulfoxide (DMSO) or a dose of 10 mg/kg for a 25 g mouse. Injected mice were anesthetized with ketamine/xylazine at 1, 2, 4, 6, and 8 hours and blood collected by cardiac puncture. The mice were then perfused with saline and brain tissue dissected and snap frozen on dry ice. Blood was centrifuged at 3000 rpm for 10 minutes and the plasma supernatant collected. Both plasma and the right hemibrain were sent to Integrated Analytical Solutions (IAS, Berkeley, Calif.) with a reference sample of compound for compound level analysis in tissue and plasma. The compound levels were determined using a LC-MS/MS approach.
CNS exposure studies were performed and consisted of a time-course design to collect heparinized plasma and brains. Following sc administration of the galangin or progalangin (compound-2) at 10 mg/kg, plasma and brain levels of the compounds were determined by quantitative LC/MS/MS methodology. Plasma samples were precipitated with acetonitrile:methanol (1:1) cocktail containing an internal standard. The brain samples were homogenized directly in ethylacetate or extracted from 5M guanidine homogenates with the liquid-liquid method. The resulting supernatant was evaporated to dryness and subjected to the LC/MS/MS analysis. For each compound 5 mice were used for the analysis. The brain-to-plasma ratios and plasma/brain Cmax levels were then determined (see, e.g., FIG. 8).

[1] = target: acetylcholine esterase (AChE) (Homo sapiens, UniProt P22303); settings: Guo et al. (2010); cited from earlier work
Chain of acetylcholine esterase (AChE) (P22303 32-614): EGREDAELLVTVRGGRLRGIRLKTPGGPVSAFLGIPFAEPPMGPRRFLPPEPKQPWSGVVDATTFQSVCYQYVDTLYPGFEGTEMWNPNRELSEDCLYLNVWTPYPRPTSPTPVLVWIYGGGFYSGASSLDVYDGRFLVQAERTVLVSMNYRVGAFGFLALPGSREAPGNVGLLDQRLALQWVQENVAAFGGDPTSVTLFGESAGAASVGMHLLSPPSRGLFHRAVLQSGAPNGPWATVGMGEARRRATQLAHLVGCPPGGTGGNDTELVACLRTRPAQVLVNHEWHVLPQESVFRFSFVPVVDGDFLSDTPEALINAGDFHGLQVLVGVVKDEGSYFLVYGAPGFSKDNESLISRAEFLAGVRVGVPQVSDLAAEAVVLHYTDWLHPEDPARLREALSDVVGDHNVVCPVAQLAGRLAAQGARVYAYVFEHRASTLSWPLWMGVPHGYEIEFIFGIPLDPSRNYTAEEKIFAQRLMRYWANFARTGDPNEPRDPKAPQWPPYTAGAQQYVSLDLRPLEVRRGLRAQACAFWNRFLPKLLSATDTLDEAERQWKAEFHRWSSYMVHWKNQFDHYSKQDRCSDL

MBP-C125 APP = MBP-C125 APP (Homo sapiens, UniProt P05067); assay: Nitrocellulose filter ligand-binding (ligand blot) assay; settings: qualitative; UV and MALDI detection
Chain of MBP-C125 APP (P05067 646-770 limits assumed): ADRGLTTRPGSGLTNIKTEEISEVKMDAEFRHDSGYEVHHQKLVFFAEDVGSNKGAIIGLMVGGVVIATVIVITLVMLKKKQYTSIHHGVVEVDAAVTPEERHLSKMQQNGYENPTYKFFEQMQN
Protocol: To explore the interaction of ASBIs with APP a ligand blot technique was used, where MBP-C125 APP was dot blotted on a nitrocellulose blot and binding to the protein was detected upon treatment with the bioflavonoids. A nitrocellulose filter-binding assay with bovine serum albumin (BSA) was used as a control. The binding of bioflavonoids was determined using both UV and MALDI mass spectrometric analysis.

[2] = system: APP-Gal4 transactivation in HEK293T cells; assay: APP-Gal4/Mint3/TAZ transactivation assay; format: cell-based; settings: Mint3 and TAZ present, galangin at 10 μM
Source text: FIGS. 7A and 7B illustrate inhibition of APP-Gal4 and APLP2-Gal4 transactivation by galangin. […] This transactivation was inhibited by Galangin and BACE inhibitor IV. FIG. 7B: Potent transactivation of transcription was also achieved with APLP2 fused to the Gal4 DNA binding domain when both Mint3 and TAZ were present. This transactivation was inhibited by Galangin and BACE inhibitor IV. […] The normalized luciferase activity is expressed as a percentage of the DMSO treated control (FIGS. 7A, 7B). Error bars indicate SEM. (*, p<0.05; **, p<0.01; ***, p<0.001; n=3, student t test).
This assay system is described by Orcholski et al. (2011) J. Alzheimers Dis., 23(4):689-699. Transactivation is achieved upon transfection with Mint3 and Taz. The ASBI was expected to inhibit only the transactivation of APP-Gal4, not that of APLP2-Gal4. For these experiments cells were co-transfected with a Gal4-luciferase reporter plasmid (to measure transactivation), a beta-galactosidase plasmid (to normalize for transfection efficiency), and the test plasmids identified. The normalized luciferase activity was expressed as fold induction over transcription by APP-Gal4 alone (FIG. 7A), or as fold induction over APLP2-Gal4 alone (FIG. 7B).
HEK293T cells were co-transfected with five plasmids: (1) pG5E1B-luc, 0.3 μg; (2) pCMV-LacZ, 0.1 μg; (3) pMst-APP (APP-Gal4) or pcDNA3.1-APLP2-Gal4, 0.3 μg; (4) pCMV5-Mint3, 1.0 μg; (5) pEF-N-FLAG-TAZ, 1.0 μg. Cells were harvested 48 hr after transfection in 0.2 ml per well Cell Culture Lysis Buffer (Promega), and their luciferase and β-galactosidase activities were determined with the Promega luciferase assay kit and the Promega β-galactosidase assay kit, respectively. The luciferase activity was standardized by the β-galactosidase activity to control for transfection efficiency and general effects on transcription. Transfections were performed at 80-90% cofluency in six-well plates using Lipofectamine 2000 (Invitrogen).

T1 sequence (P05067 650-699): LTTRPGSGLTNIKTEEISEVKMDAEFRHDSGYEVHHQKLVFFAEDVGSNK

For `O=c1c(O)c(-c2ccccc2)oc2cc(O)cc(O)c12` [Galangin], the “binding to APP by SPR” value (TRX-eAPP575-624) was “demonstrated binding to the APP substrate”, the brain penetration (in vivo) was “did show some brain penetration” and the “plasma levels versus brain tissue levels” value (in vivo) was “Plasma levels were greater than brain tissue levels”. For the same compound, the “brain Cmax of galangin” value (in vivo; sc, 10 mg/kg) was about 50 ng/g, the “brain to plasma ratio” value (in vivo; sc, 10 mg/kg) was 1:10 and the concentration at 1 h (in vivo; sc, 10 mg/kg) was 40 ng/g. The “inhibitor of acetylcholine esterase (AChE)” value [1] was “inhibitor of acetylcholine esterase (AChE)”, the “binding to the APP substrate” value (MBP-C125 APP) was “shows binding to the APP substrate” and the APP-Gal4 transactivation [2] was “inhibited”. The APP-Gal4 transactivation ([2]; listed as galangin) was “inhibit; also recorded: inhibits APP-Gal4 and APLP2-Gal4”.
